Data as given in US11026901B2, “Treatment or prevention of cardiovascular events via the administration of a colchicine derivative” (Murray and Poole Enterprises, LTD., priority 2012, dated 2021).

Test system: patients with angiographically proven, clinically stable coronary disease
Test: LoDoCo trial: cardiovascular events with colchicine 0.5 mg/day added to standard secondary prevention therapy
Type: in vivo, human
Procedure: We employed a PROBE [Prospective Randomized, Open, Blinded End-point] design
All patients signed informed consent before randomization.
All other treatments were continued as usual.
The secondary outcomes were analysed similarly.

[1] = intention-to-treat, in each group
[2] = intention-to-treat, treatment [n = 282] vs control [n = 250]
[3] = on-treatment analysis, treatment [n = 243] vs control [n = 250]

COc1cc2c(c(OC)c1OC)-c1ccc(OC)c(=O)cc1[C@@H](NC(C)=O)CC2 [colchicine]
risk of a cardiovascular event, including an ACS, out of hospital cardiac arrest and non-cardio-embolic ischemic stroke (colchicine 0.5 mg/day added to standard therapy, stable coronary disease): significantly reduces
patients who died (colchicine group (ten in the control group)): 4 patients
Primary Outcome (composite ACS, out of hospital cardiac arrest or non-cardio-embolic ischemic stroke), patients with event (intention-to-treat, colchicine 0.5 mg/day [n = 282], median follow up 36 months): 15 n
number needed to treat, primary outcome (intention-to-treat, colchicine 0.5 mg/day vs control): 11
stent related ACS with evidence of acute stent thrombosis, patients [1]: 2
stent related ACS with evidence of significant in-stent stenosis, patients [1]: 2
Acute Coronary Syndrome, HR; 95% CI [2]: 0.33
Non-Stent Related ACS, HR; 95% CI [2]: 0.26
Non-Stent Related AMI, HR; 95% CI [2]: 0.25
Non-Stent Related UA, HR; 95% CI [2]: 0.27
Primary Outcome, HR 95% CI (intention-to-treat, treatment [n = 282] vs control [n = 250], cox proportional hazards): 0.33
Primary Outcome, patients with event (on-treatment analysis (tolerant and compliant beyond first month), colchicine 0.5 mg/day [n = 243]): 11 n
Acute Coronary Syndrome, HR; 95% CI [3]: 0.28 (0.13, 0.58)
Non-Cardio-Embolic Stroke, HR; 95% CI [3]: 0.27 (0.03, 2.42)
Non-Stent Related ACS, HR; 95% CI [3]: 0.21 (0.09, 0.50)
Non-Stent Related AMI, HR; 95% CI [3]: 0.30 (0.10, 0.91)
Non-Stent Related UA, HR; 95% CI [3]: 0.13 (0.03, 0.57)
OOH Cardiac Arrest, HR; 95% CI [3]: 0.55 (0.05, 6.03)
